# Assays:
# [1] = tested on: FKBP12-fusion proteins (GAL4DBD-FKBP, VPAD-FKBP); assay: FK1012-inducible luciferase transcription assay in CHO cells; type: cell-based; details: 200 nM, 10 hours
# Protocol: Previously, syntheses of FK1012 variants either involve multi-step transformations with 18% overall yields, or a single-step cross metathesis with 50% yield with a 22-hour reaction time. […] Using dithiothreitol (DTT) as the linker, two equivalents of tacrolimus and one equivalent of DTT were coupled under the TEC reaction condition to produce FK1012-DT (Compound 15, FIG. 12) in one step within 15 minutes in quantitative yield (FIG. 12, Scheme (a)). […] For the assay, two DNA constructs were prepared, each one encoding an FKBP12-fusion protein. […]
# Cells in 24-well plates were lysed with 100 μL of 1× Passive Lysis Buffer (Promega Corporation, Madison, Wis.) at room temperature for 10 minutes on a shaker. […] 90 μL of Luciferase substrate solution (5 mg of D-luciferin and 7 mg of coenzyme A in 33mL of Luciferase reading buffer, which includes 20 mM tricine, 1.07 mM (MgCO3)4Mg(OH)2.5H2O, 2.67 mM MgSO4, 0.1 mM EDTA, 33.3 mM dithiothreitol and 0.53 mM ATP in water) was added into each well with cell lysates. The signal was read with a 3 s delay and 1 s integration with GLOMAX multi-detection system (Promega Corp., Madison, Wis.). Obtained data were analyzed by KALEIDAGRAPH (Synergy Software, Reading, Pa.).
# [2] = target: FKBP12 (Homo sapiens, UniProt P62942); details: cited from earlier work
# [3] = tested on: RNase III; details: cited from earlier work
# Sequence of FKBP12 (P62942 whole entry, species assumed): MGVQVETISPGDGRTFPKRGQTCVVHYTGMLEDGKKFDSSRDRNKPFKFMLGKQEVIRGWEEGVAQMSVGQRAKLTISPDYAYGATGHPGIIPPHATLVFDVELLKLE
structure (smiles),measurement,setting,value
"C=CC[C@@H]1/C=C(\C)C[C@H](C)C[C@H](OC)[C@H]2O[C@@](O)(C(=O)C(=O)N3CCCC[C@H]3C(=O)O[C@H](/C(C)=C/[C@@H]3CC[C@@H](O)[C@H](OC)C3)[C@H](C)[C@@H](O)CC1=O)[C@H](C)C[C@@H]2OC [tacrolimus, Tacrolimus]",induction of luciferase (compared to the no drug control),[1],not observed
"CCC(C)(C)C(=O)C(=O)N1CCCC[C@H]1C(=O)O[C@H](CCc1ccc(OC)c(OC)c1)c1cccc(N)c1 [SLF, (1R)-1-(3-aminophenyl)-3-(3,4-dimethoxyphenyl)propyl ester-1-(3,3-dimethyl-1,2-dioxopentyl)-2S-piperidinecarboxylic acid]",decrease of affinity for FKBP12 compared to tacrolimus,[2],10 fold
O=C1c2ccccc2C(=O)N1O [N-hydroxyphthalimide],affinity as RNase III inhibitor,[3],low affinity

# Source: patent publication US10093929B2, “Modular RNA regulators and methods” (STC.UNM, priority 2013, dated 2018)
